Several values for one entry are separate records, joined by “and”; a condition that tells them apart may be missing. Equal values may be shown once. Inconclusive results and toxic doses are left out. No stated cut-off is given here; in the data, active means T/C of 150% or more; inactive means T/C below 125%.
Tested on: L1210 leukemia ip in BDF1 mice, survival T/C
Experiment: NCI In Vivo Anticancer Drug Screen. Data for tumor model L1210 Leukemia (intraperitoneal) in B6D2F1 (BDF1) mice
Details: endpoint: mean survival time, higher = longer survival
Outline: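 Tumor was transplanted into mice, which were then dosed with test compound or vehicle alone. Survival was recorded for each group, and the treated figure was expressed relative to the control figure.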

[1] = dose: 100.0 mg/kg/injection, schedule: Q01DX009 (ip), vehicle: saline with Tween-80
[2] = dose: 100.0 mg/kg/injection, schedule: Q04DX003 (ip), vehicle: saline with Tween-80
[3] = dose: 200.0 mg/kg/injection, schedule: Q01DX009 (ip), vehicle: saline with Tween-80
[4] = dose: 200.0 mg/kg/injection, schedule: Q04DX003 (ip), vehicle: saline with Tween-80
[5] = dose: 400.0 mg/kg/injection, schedule: Q01DX009 (ip), vehicle: saline with Tween-80
[6] = dose: 400.0 mg/kg/injection, schedule: Q04DX003 (ip), vehicle: saline with Tween-80
[7] = dose: 100.0 mg/kg/injection, schedule: Q01DX009 (ip), vehicle: saline
[8] = dose: 100.0 mg/kg/injection, schedule: Q04DX003 (ip), vehicle: saline
[9] = dose: 200.0 mg/kg/injection, schedule: Q01DX009 (ip), vehicle: saline
[10] = dose: 200.0 mg/kg/injection, schedule: Q04DX003 (ip), vehicle: saline
[11] = dose: 400.0 mg/kg/injection, schedule: Q01DX009 (ip), vehicle: saline
[12] = dose: 400.0 mg/kg/injection, schedule: Q04DX003 (ip), vehicle: saline
[13] = dose: 100.0 mg/kg/injection, schedule: Q01DX001 (ip), vehicle: saline
[14] = dose: 200.0 mg/kg/injection, schedule: Q01DX001 (ip), vehicle: saline
[15] = dose: 100.0 mg/kg/injection, schedule: Q01DX009 (ip), vehicle: Klucel (hydroxypropylcellulose) (HPC)
[16] = dose: 100.0 mg/kg/injection, schedule: Q04DX003 (ip), vehicle: Klucel (hydroxypropylcellulose) (HPC)
[17] = dose: 200.0 mg/kg/injection, schedule: Q01DX009 (ip), vehicle: Klucel (hydroxypropylcellulose) (HPC)
[18] = dose: 200.0 mg/kg/injection, schedule: Q04DX003 (ip), vehicle: Klucel (hydroxypropylcellulose) (HPC)
[19] = dose: 50.0 mg/kg/injection, schedule: Q01DX009 (ip), vehicle: Klucel (hydroxypropylcellulose) (HPC)
[20] = dose: 100.0 mg/kg/injection, schedule: Q04DX002 (ip), vehicle: Klucel (hydroxypropylcellulose) (HPC)
[21] = dose: 200.0 mg/kg/injection, schedule: Q04DX002 (ip), vehicle: Klucel (hydroxypropylcellulose) (HPC)
[22] = dose: 50.0 mg/kg/injection, schedule: Q04DX003 (ip), vehicle: saline

Measured: T/C

OC1(c2ccccc2)c2ccccc2-c2ccccc21
inactive: [1] 101 % of control | [2] 98 % of control | [3] 106 % of control | [4] 93 % of control | [5] 106 % of control | [6] 95 % of control

COC(=O)c1ccc(SCCCN2CCOCC2)cc1
inactive: [7] 97 % of control | [8] 109 % of control | [9] 96 % of control | [10] 96 % of control | [11] 102 % of control | [12] 100 % of control

Nc1nc2c(nnn2C2OC(COP(=O)(O)O)C(O)C2O)c(=O)[nH]1 (centres undefined)
inactive: dose: 2.5 mg/kg/injection, schedule: Q01DX Z (ip), vehicle: other 89 % of control | dose: 5.0 mg/kg/injection, schedule: Q01DX Z (ip), vehicle: other 97 % of control | dose: 10.0 mg/kg/injection, schedule: Q01DX Z (ip), vehicle: other 102 % of control | dose: 20.0 mg/kg/injection, schedule: Q01DX Z (ip), vehicle: other 118 % of control | dose: 30.0 mg/kg/injection, schedule: Q01DX Z (ip), vehicle: other 120 % of control | dose: 50.0 mg/kg/injection, schedule: Q01DX Z (ip), vehicle: other 118 % of control

CC(C)=CCC(C)c1ccccn1 (centres undefined)
inactive: [13] 100 % of control | [14] 100 % of control | dose: 400.0 mg/kg/injection, schedule: Q01DX001 (ip), vehicle: saline 97 % of control

OCC1OCCO1
inactive: [1] 96 % of control | [2] 110 % of control | [3] 93 % of control | [4] 102 % of control | [5] 96 % of control | [6] 100 % of control

COc1ccc(C=Nc2ccc(Cl)cc2)cc1
inactive: [15] 96 % of control | [16] 102 % of control | [17] 97 % of control | [18] 104 % of control | dose: 400.0 mg/kg/injection, schedule: Q04DX003 (ip), vehicle: Klucel (hydroxypropylcellulose) (HPC) 100 % of control

O=C(Nc1ccc(C(=O)O)cc1)Nc1cccc(F)c1
inactive: [19] 102 % of control | [15] 111 % of control | [20] 95 % of control | [21] 98 % of control

CCCNC(=O)Oc1ccccc1C(N)=O
inactive: [15] 105 % of control | [17] 102 % of control

CC(=O)Nc1ccc(N)cc1N
inactive: [22] 98 % of control | [2] 102 % of control | [8] 92 % of control and 89 % of control | [4] 115 % of control | [10] 98 % of control | [6] 100 % of control | [12] 89 % of control

Cn1ncc(C(=O)O)c1NN=O
inactive: [22] 104 % of control | dose: 100.0 mg/kg/injection, schedule: Q01DX001 (ip), vehicle: carboxymethylcellulose (CMC) 106 % of control | [8] 105 % of control | dose: 200.0 mg/kg/injection, schedule: Q01DX001 (ip), vehicle: carboxymethylcellulose (CMC) 108 % of control | [10] 96 % of control | dose: 400.0 mg/kg/injection, schedule: Q01DX001 (ip), vehicle: carboxymethylcellulose (CMC) 102 % of control

CCOC(=O)/C=C(/Nc1ccc(S(=O)(=O)F)cc1)c1ccccc1
inactive: dose: 100.0 mg/kg/injection, schedule: Q01DX001 (ip), vehicle: Klucel (hydroxypropylcellulose) (HPC) 104 % of control | dose: 200.0 mg/kg/injection, schedule: Q01DX001 (ip), vehicle: Klucel (hydroxypropylcellulose) (HPC) 100 % of control | dose: 400.0 mg/kg/injection, schedule: Q01DX001 (ip), vehicle: Klucel (hydroxypropylcellulose) (HPC) 98 % of control

Cc1ccc(S(=O)(=O)OCC2CO2)c(C)c1 (centres undefined)
inactive: dose: 50.0 mg/kg/injection, schedule: Q01DX007 (ip), vehicle: saline with Tween-80 106 % of control | dose: 100.0 mg/kg/injection, schedule: Q01DX007 (ip), vehicle: saline with Tween-80 103 % of control | dose: 200.0 mg/kg/injection, schedule: Q01DX007 (ip), vehicle: saline with Tween-80 94 % of control

COC(OC)c1cc(=O)[nH]c(N)n1
inactive: dose: 50.0 mg/kg/injection, schedule: Q01DX001 (ip), vehicle: saline 103 % of control | [19] 109 % of control | dose: 50.0 mg/kg/injection, schedule: Q04DX003 (ip), vehicle: Klucel (hydroxypropylcellulose) (HPC) 97 % of control | [13] 101 % of control | [15] 100 % of control | [16] 93 % of control | [14] 108 % of control | [17] 104 % of control | [18] 96 % of control

CNC(=O)OCC1=CC(=O)C(OC)=CC1=O
inactive: dose: 0.37 mg/kg/injection, schedule: Q01DX009 (ip), vehicle: Klucel (hydroxypropylcellulose) (HPC) 91 % of control | dose: 0.75 mg/kg/injection, schedule: Q01DX009 (ip), vehicle: Klucel (hydroxypropylcellulose) (HPC) 98 % of control | dose: 12.5 mg/kg/injection, schedule: Q04DX003 (ip), vehicle: Klucel (hydroxypropylcellulose) (HPC) 92 % of control | dose: 25.0 mg/kg/injection, schedule: Q01DX009 (ip), vehicle: Klucel (hydroxypropylcellulose) (HPC) 88 % of control | dose: 25.0 mg/kg/injection, schedule: Q04DX003 (ip), vehicle: Klucel (hydroxypropylcellulose) (HPC) 103 % of control

C/C(=N\Sc1cccc([N+](=O)[O-])c1)c1ccccc1O
inactive: [20] 105 % of control | [21] 94 % of control | dose: 400.0 mg/kg/injection, schedule: Q04DX002 (ip), vehicle: Klucel (hydroxypropylcellulose) (HPC) 94 % of control

S=c1ccnc[nH]1
inactive: dose: 100.0 mg/kg/injection, schedule: Q01DX Z (ip), vehicle: methylcellulose (MC) 87 % of control | dose: 200.0 mg/kg/injection, schedule: Q01DX Z (ip), vehicle: methylcellulose (MC) 88 % of control

Nc1ncnn1C(=O)NCCCl
inactive: [7] 94 % of control | [8] 101 % of control | [9] 97 % of control | [10] 101 % of control | [11] 97 % of control | [12] 101 % of control

O=P(NCCCO)(OCc1ccccc1)N(CCCl)CCCl (centres undefined)
inactive: dose: 62.5 mg/kg/injection, schedule: Q01DX010 (ip), vehicle: saline 87 % of control | dose: 125.0 mg/kg/injection, schedule: Q01DX010 (ip), vehicle: saline 98 % of control | dose: 250.0 mg/kg/injection, schedule: Q01DX010 (ip), vehicle: saline 90 % of control | dose: 250.0 mg/kg/injection, schedule: Q01DX Z (ip), vehicle: saline 95 % of control | dose: 500.0 mg/kg/injection, schedule: Q01DX Z (ip), vehicle: saline 95 % of control | dose: 750.0 mg/kg/injection, schedule: Q01DX Z (ip), vehicle: saline 118 % of control

CCN(C(=O)c1ccc(C(=O)N(CC)c2cccc(C)c2)cc1)c1cccc(C)c1
inactive: [15] 94 % of control | [17] 89 % of control | dose: 400.0 mg/kg/injection, schedule: Q01DX009 (ip), vehicle: Klucel (hydroxypropylcellulose) (HPC) 91 % of control

N#CCCn1c(=S)sc2ccccc21
inactive: dose: 50.0 mg/kg/injection, schedule: Q04DX003 (ip), vehicle: saline with Tween-80 103 % of control | [2] 100 % of control | [4] 106 % of control

Source: PubChem BioAssay AID248 (DTP/NCI, 2004)
